Source: patent US20250231157A1, “METHOD FOR DETERMINING THE PARTITION OF NAPHTHENIC ACIDS FROM A PRODUCTION WATER MIMICKING SYSTEM AND MIMICKING SYSTEM” (PETRÓLEO BRASILEIRO S.A. – PETROBRAS, priority 2023, published 2025)
Where “and” joins values, the source holds several entries; their conditions need not be identical. Equal entries are not always repeated.

Tests used:
[1] = Partition equilibrium (migration to aqueous phase) heptol/water under pressure and temperature, central composite design, potentiometric titration; assay type: physicochemical; conditions: for Migration, Predicted: model value
Experimental: Three multivariate experimental designs (central composite designs) were performed in which the variables pressure (up to 1 MPa) and temperature (between 25° C. and 80° C.) were considered independent variables, with the migration of three acidic species as the response factor: benzoic, pentanoic and cyclohexanepentanoic acid. For this purpose, 5 levels were defined and gave rise to 10 experiments for each acidic species (Table 4), added to two control experiments (with higher pressure and temperature, as well as in the absence of pressure and at room temperature).
The experiments were performed with constant salinity of 3.5% (m·v^−1), constant heptol fraction (70:30, for heptane and toluene), and acidic species concentration of 0.03 M for benzoic and pentanoic acid, and 0.01 M for cyclohexanepentanoic acid. The results were evaluated with 95% confidence, using a response surface to estimate the maximum observable effect in each case, provided that the mathematical correlation was equal to or greater than R^2: 0.75.

[2] = Control experiments: availability of the species in alkaline aqueous medium without using the reactor; assay type: physicochemical; conditions: acid solubilized directly in aqueous phase, no reactor
Experimental: Previously, the back titration procedure was internalized and optimized (Example 1), ensuring that the reproducibility of the measurements was adequate (standard deviation values below 10%, for example) and that the recoveries were close to what was expected based on the purity of the reagents (i.e., close to or above 90%). […] Control experiments were performed (measuring the availability of the species in an aqueous medium, without using the reactor) by solubilizing the organic acid directly in the aqueous phase and titrating a 10.0 mL aliquot; the same way, experiments were performed in the reactor based on the standardization of heptol and salinity already discussed (3.5%).

[3] = Partition equilibrium in the presence of surfactants (TBA, CTA, TMA); assay type: physicochemical; conditions: for Increase in migration to the aqueous phase with CTA: surfactant CTA, 1000 mg·L^−1
Source text: The presence of chemical compounds usually added in the chain of unit operations of oil extraction and production, such as demulsifiers and surfactants, can affect the partition equilibrium of species in this water/oil system. In order to understand the extent of this effect, as well as discern the relevance of the chemical structure on this effect, the following items were chosen: • Dissolvan 961 (Clariant), composed of oil hydrocarbons (CAS 918-811-1) and ethanol (CAS 64-17-5); • Dissolvan 974 (Clariant), composed of EO-PO block polymer poly adducts and Bisphenol-A-diglycidyl ether (CAS 68123-18-2) and ethanol (CAS 64-17-5); • Tetrabutylammonium chloride (CAS 1112-67-0), 97% purity; • Cetyltrimethylammonium chloride (CAS 112-02-7), 25% in water; and • Trimethylammonium chloride (CAS 593-81-7), 98% purity.
For this study, the experiments (in triplicate) used between 100.0 and 1000.0 mg·L^−1 of each compound, comparing the results with control tests (absence of the component), all with constant salinity at 3.5% (m·v^−1). Finally, neutralization titration with a standardized NaOH titrant solution was used to determine the effect on the partition equilibrium for four acidic species (the same as in the other examples, except for dicyclohexylacetic acid).
Considering the study with surfactants, the (individual) addition of three species to the control system was evaluated (tetrabutylammonium chloride (TBA), tetramethylammonium chloride (TMA) and cetyltrimethylammonium chloride (CTA)). For this purpose, the surfactants have distinct chemical structures, namely the size of the side chain, and their eventual effect on the partition equilibrium of the acidic species was evaluated.

[4] = Partition equilibrium in the presence of demulsifiers (Dissolvan 961, Dissolvan 974)
[5] = Partition equilibrium in reactor pressurized with CO2, in presence and absence of alkalinity (NaHCO3, Na2CO3), back titration
Experimental: In the initial tests, 100 mL of heptol and 300 mL of water (with or without salinity) were used, with the addition of acidic species in the organic phase, in order to verify migration to the aqueous phase. As a rule, the system was kept under agitation at 500 rpm for 8 min, followed by rest for 10 min and, finally, collection of 50.0 mL aliquots of the aqueous phase for titrimetric analysis.
A 316 stainless steel alloy reactor (Parr®) (capacity for 600 mL and operational up to 20 MPa pressure) was used. For this purpose, a temperature range between 25° C. and 80° C. and pressure between 0.1 MPa and 1.0 MPa were used, and the reactor was pressurized with CO2. Thus, the results were compared (in terms of migration of the acidic species (%, mol) by means of back titrations) and the influence of pressure and temperature on the partition was estimated, as well as possible synergistic effects with the sources of alkalinity added to the aqueous phase.

[6] = 20 °C, 0.1 MPa (experiment 12, control)
[7] = 38 °C, 0.25 MPa (experiment 1), heptol 70:30, 3.5% salinity
[8] = 52 °C, 0.5 MPa (experiments 9 and 10)
[9] = 52 °C, 0.5 MPa (experiments 9 and 10, centre point)
[10] = 80 °C, 1 MPa (experiment 11, control)
[11] = Na2CO3 + NaHCO3 (3.48×10^−5 mol)
[12] = Absence of surfactant, salinity 3.5%
[13] = CTA100 (cetyltrimethylammonium chloride 100 mg · L^−1)
[14] = TBA100 (tetrabutylammonium chloride 100 mg · L^−1)
[15] = TMA100 (trimethylammonium chloride 100 mg · L^−1)
[16] = Absence of ions (no demulsifier), salinity 3.5%
[17] = 25° C. and 1.0 MPa CO2, no alkalinity
[18] = 80° C. and 1.0 MPa CO2, no alkalinity
[19] = Na2CO3 + NaHCO3, 25° C. and 0.1 MPa
[20] = Na2CO3 + NaHCO3, 25° C. and 1.0 MPa CO2
[21] = Na2CO3 + NaHCO3, 80° C. and 1.0 MPa CO2
[22] = Reference (heptol + 3.5% NaCl), no alkalinity

## O=C(O)c1ccccc1 [Benzoic Acid, benzoic acid]
[1]; [6]
  Migration, Measured: 57.0 %, mol
[1]; 25 °C, 0.5 MPa (experiment 5)
  Migration, Increment (related to control): 2.7 %, mol
  Migration, Measured: 58.6 %, mol
  Migration, Predicted: 57.5 %, mol
[1]; 38 °C, 0.25 MPa (experiment 1)
  Migration, Increment (related to control): 6.9 %, mol
  Migration, Predicted: 62.5 %, mol
[1]; [7]
  Migration, Measured: 61.0 %, mol
[1]; 38 °C, 0.75 MPa (experiment 3)
  Migration, Increment (related to control): 4.6 %, mol
  Migration, Measured: 59.7 %, mol
  Migration, Predicted: 62 %, mol
[1]; 52 °C, 0.1 MPa (experiment 7)
  Migration, Increment (related to control): 16.4 %, mol
  Migration, Measured: 66.4 %, mol
  Migration, Predicted: 66.1 %, mol
[1]; [8]
  Migration, Increment (related to control): 14.5 %, mol and 14.3 %, mol
  Migration, Predicted: 66.6 %, mol
[1]; [9]
  Migration, Measured: 65.3 %, mol and 65.2 %, mol
[1]; 52 °C, 1 MPa (experiment 8)
  Migration, Increment (related to control): 16.8 %, mol
  Migration, Measured: 66.7 %, mol
  Migration, Predicted: 65.5 %, mol
[1]; 66 °C, 0.25 MPa (experiment 2)
  Migration, Increment (related to control): 21.2 %, mol
  Migration, Measured: 69.2 %, mol
  Migration, Predicted: 69.8 %, mol
[1]; 66 °C, 0.75 MPa (experiment 4)
  Migration, Increment (related to control): 19.8 %, mol
  Migration, Measured: 68.4 %, mol
  Migration, Predicted: 69.8 %, mol
[1]; 80 °C, 0.5 MPa (experiment 6)
  Migration, Increment (related to control): 27.9 %, mol
  Migration, Measured: 73.0 %, mol
  Migration, Predicted: 72.7 %, mol
[1]; 80 °C, 1 MPa (experiment 11)
  Migration, Increment (related to control): 26.3 %, mol
  Migration, Predicted: 66.6 %, mol
[1]; [10]
  Migration, Measured: 72.1 %, mol
[2]; [11]
  Availability (reference value): 72.2 % mol
[2]; NaHCO3 (3.45×10^−5 mol)
  Availability (reference value): 83.1 % mol
[3]; [12]
  Migration: 82.0 %, mol
[3]; [13]
  Migration: 57.1 %, mol
[3]; CTA1000 (1000 mg · L^−1)
  Migration: 66.3 %, mol
[3]; [14]
  Migration: 55.5 %, mol
[3]; TBA1000 (1000 mg · L^−1)
  Migration: 54.8 %, mol
[3]; [15]
  Migration: 63.4 %, mol
[3]; TMA1000 (1000 mg · L^−1)
  Migration: 63.7 %, mol
[3]
  Increase in migration to the aqueous phase with CTA: ~10%
[3]; surfactant TBA, different concentrations
  Effect of TBA on migration to the aqueous phase: no significant effect
[3]; surfactant TMA, from 100 mg·L^−1
  Increase in affinity for the hydrophilic phase with TMA: approximately 10%
[4]; [16]
  Migration: 82.0 %, mol
[4]; D961 50 mg · L^−1
  Migration: 62.3 %, mol
[4]; D961 100 mg · L^−1
  Migration: 70.3 %, mol
[4]; D961 1000 mg · L^−1
  Migration: 68.4 %, mol
[4]; D974 50 mg · L^−1
  Migration: 63.1 %, mol
[4]; D974 100 mg · L^−1
  Migration: 57.3 %, mol
[4]; D974 1000 mg · L^−1
  Migration: 59.7 %, mol
[5]; [17]
  Migration: 64.4 % mol
[5]; [18]
  Migration: 59.3 % mol
[5]; [19]
  Migration: 49.3 % mol
[5]; [20]
  Migration: 100 % mol
[5]; [21]
  Migration: 88.3 % mol
[5]; NaHCO3, 25° C. and 0.1 MPa
  Migration: 53.6 % mol
[5]; NaHCO3, 25° C. and 1.0 MPa CO2
  Migration: 93.3 % mol
[5]; NaHCO3, 80° C. and 1.0 MPa CO2
  Migration: 88.9 % mol and 88.6 % mol
[5]; [22]
  Migration: 82.0±3.0 % mol and 82 % mol

## O=C(O)CCCCC1CCCCC1 [Cyclohexanepentanoic Acid, cyclohexanepentanoic acid]
[1]; [6]
  Migration, Measured: 4.0 %, mol
[1]; 25 °C, 0.5 MPa (experiment 5)
  Migration, Increment (related to control): −39.73 %, mol
  Migration, Measured: 2.4 %, mol
  Migration, Predicted: 4.0 %, mol
[1]; 38 °C, 0.25 MPa (experiment 1)
  Migration, Increment (related to control): −42.22 %, mol
  Migration, Predicted: 1.7 %, mol
[1]; [7]
  Migration, Measured: 2.3 %, mol
[1]; 38 °C, 0.75 MPa (experiment 3)
  Migration, Increment (related to control): 104.3 %, mol
  Migration, Measured: 8.2 %, mol
  Migration, Predicted: 5.1 %, mol
[1]; 52 °C, 0.1 MPa (experiment 7)
  Migration, Increment (related to control): −29.8 %, mol
  Migration, Measured: 2.8 %, mol
  Migration, Predicted: 1.9 %, mol
[1]; [9]
  Migration, Measured: 2.6 %, mol and 3.1 %, mol
[1]; 52 °C, 1 MPa (experiment 8)
  Migration, Increment (related to control): 76.99 %, mol
  Migration, Measured: 7.1 %, mol
  Migration, Predicted: 8.6 %, mol
[1]; 66 °C, 0.25 MPa (experiment 2)
  Migration, Increment (related to control): −37.25 %, mol
  Migration, Measured: 2.5 %, mol
  Migration, Predicted: 4.4 %, mol
[1]; 66 °C, 0.75 MPa (experiment 4)
  Migration, Increment (related to control): 106.79 %, mol
  Migration, Measured: 8.3 %, mol
  Migration, Predicted: 7.7 %, mol
[1]; 80 °C, 0.5 MPa (experiment 6)
  Migration, Increment (related to control): 157.42 %, mol
  Migration, Measured: 10.3 %, mol
  Migration, Predicted: 9.3 %, mol
[1]; 80 °C, 1 MPa (experiment 11)
  Migration, Increment (related to control): −34.77 %, mol
  Migration, Predicted: 8.6 %, mol
[1]; [10]
  Migration, Measured: 2.6 %, mol
[1]; [8]
  Migration, Predicted: 3.5 %, mol
[2]; [11]
  Availability (reference value): 100 % mol
[2]; NaHCO3 (3.45×10^−5 mol)
  Availability (reference value): 100 % mol
[3]; [12]
  Migration: 4.9 %, mol
[3]; [13]
  Migration: 2.1 %, mol
[3]; CTA1000 (1000 mg · L^−1)
  Migration: 38.9 %, mol
[3]; [14]
  Migration: 18.5 %, mol
[3]; TBA1000 (1000 mg · L^−1)
  Migration: 18.4 %, mol
[3]; [15]
  Migration: 0.0 %, mol
[3]; TMA1000 (1000 mg · L^−1)
  Migration: 0.0 %, mol
[3]
  Increase in migration to the aqueous phase with CTA: above 700%
[3]; surfactant TBA, noticeable from 100 mg·L^−1
  Increase in the tendency to migrate to the aqueous phase with TBA: 370%
[3]; surfactant TMA
  Effect of TMA on partition equilibrium: migration tending to zero
[4]; [16]
  Migration: 4.9 %, mol
[4]; D961 50 mg · L^−1
  Migration: 5.42 %, mol
[4]; D961 100 mg · L^−1
  Migration: 5.16 %, mol
[4]; D961 1000 mg · L^−1
  Migration: 10.2 %, mol
[4]; D974 50 mg · L^−1
  Migration: 4.78 %, mol
[4]; D974 100 mg · L^−1
  Migration: 5.26 %, mol
[4]; D974 1000 mg · L^−1
  Migration: 12.80 %, mol
[4]; addition of 1000 mg·L^−1 demulsifier
  Increase in migration to the aqueous phase with demulsifier: ~100%
[5]; [17]
  Migration: not quantifiable
[5]; [18]
  Migration: not quantifiable
[5]; [19]
  Migration: 71.1 % mol
[5]; [20]
  Migration: 100.0 % mol
[5]; [21]
  Migration: 100.0 % mol
[5]; NaHCO3, 25° C. and 0.1 MPa
  Migration: 82.7 % mol
[5]; NaHCO3, 25° C. and 1.0 MPa CO2
  Migration: 100.0 % mol
[5]; NaHCO3, 80° C. and 1.0 MPa CO2
  Migration: 100.0 % mol
[5]; [22]
  Migration: 4.9 % mol and 4.3 % mol
